A value given as a limit tells only on which side of the number the result lay.

The nature of the data set: Test 4: metabolic stability test in human hepatic microsome. Format: in vitro ADME. As to conditions: 0.1 mg/mL microsome, 0.1 μmol/L compound, NADPH, 37° C., 30 minutes. How it is done:
Test 4: Metabolic Stability Test in Human Hepatic Microsome
The stability of the present compound in human hepatic microsome metabolism was evaluated as mentioned below. Human hepatic microsome was obtained from Xenontech. Human hepatic microsome, NADPH, and each test compound were mixed in 25 mmol/L phosphate buffer solution (pH 7.4) to reach the following concentrations as shown below, and the mixture was incubated at 37° C. for 30 minutes. • Human hepatic microsome: 0.1 mg/mL • NAPDH: 3.2 mmol/L • Test compound: 0.1 μmol/L
The residual ratio of the test compound in each sample after 30 minutes was measured by LC-MS, and the metabolic stability in human hepatic microsome was calculated from the following formula. Metabolic stability in human hepatic microsome (mL/min/mg protein)=−LN(residual ratio)/30/0.1
With `O=C1c2cccnc2CCN1CCN1CCN(c2nsc3ccccc23)CC1` [Example 9], the “Metabolic stability in human hepatic microsome” value (shortened to “Metabolic stability”) worked out at 0.100 mL/min/mg protein.

Turning to `O=C1c2cnn(C3CC3)c2CCN1CCN1CCC(c2noc3ccccc23)CC1` [Example 161], the “Metabolic stability” value is given as below 0.05 mL/min/mg protein.

As to `Cc1cncc2c1CCN(CCN1CCC(c3noc4ccccc34)CC1)C2=O` [Example 138], the “Metabolic stability” value worked out at 0.083 mL/min/mg protein.

For `Cc1nc2c(o1)CCCN(CCN1CCC(c3noc4ccccc34)CC1)C2=O` [Example 157], the “Metabolic stability” value was below 0.05 mL/min/mg protein.

For the molecule `O=C1c2c(Br)n[nH]c2CCN1CCN1CCC(c2noc3ccccc23)CC1` [Example 192, 5-{2-[4-(1,2-Benzoisoxazol-3-yl)piperidin-1-yl]ethyl}-3-bromo-1,5,6,7-tetrahydro-4H-pyrazolo[4,3-c]pyridin-4-one], the “Metabolic stability” value is reported as below 0.05 mL/min/mg protein.

As for `O=C1c2ncccc2CCN1CCN1CCC(c2noc3cc(F)ccc23)CC1` [Example 125], the “Metabolic stability” value was below 0.05 mL/min/mg protein.

In the case of `Cc1ccc2c(n1)C(=O)N(CCN1CCC(c3noc4ccccc34)CC1)CC2` [Example 184], the “Metabolic stability” value was below 0.05 mL/min/mg protein.

`Cc1ncc2c(=O)n(CCN3CCC(c4noc5ccccc45)CC3)ccc2n1` [Example 194, 6-{2-[4-(1,2-Benzoisoxazol-3-yl)piperidin-1-yl]ethyl}-2-methylpyrido[4,3-d]pyrimidin-5(6H)-one]: the “Metabolic stability” value is below 0.05 mL/min/mg protein.

Regarding `Cn1cc2c(n1)C(=O)N(CCN1CCN(c3nsc4ccccc34)CC1)CC2` [Example 50], the “Metabolic stability” value came out at 0.038 mL/min/mg protein.

Turning to `Cc1c2c(nn1C)CCN(CCN1CCC(c3noc4ccccc34)CC1)C2=O` [Example 37, 5-{2-[4-(1,2-Benzoisoxazol-3-yl)piperidin-1-yl]ethyl}-2,3-dimethyl-2,5,6,7-tetrahydro-4H-pyrazolo[4,3-c]pyridin-4-one], the “Metabolic stability” value amounted to 0.017 mL/min/mg protein.

As to `O=c1c2cccnc2ccn1CCN1CCN(c2noc3ccccc23)CC1` [Example 115], the “Metabolic stability” value was below 0.05 mL/min/mg protein.

Turning to `O=c1c2ncccc2ccn1CCN1CCC(c2noc3cc(F)ccc23)CC1` [Example 12], the “Metabolic stability” value came to 0.02 mL/min/mg protein.

In the case of `CC1CN(CCN2CCC(c3noc4ccccc34)CC2)C(=O)c2ncccc21` (centres unmarked) [Example 15], the “Metabolic stability” value was 0.055 mL/min/mg protein.

With `COc1ncc2c(n1)CCN(CCN1CCN(c3nsc4ccccc34)CC1)C2=O` [Example 177], the “Metabolic stability” value stood at 0.095 mL/min/mg protein.

In the case of `O=C1c2cnn(C3CC3)c2CCN1CCN1CCN(c2nsc3ccccc23)CC1` [Example 160], the “Metabolic stability” value is given as 0.13 mL/min/mg protein.

With `Cn1cc2c(n1)CCN(CCN1CCN(c3noc4ccccc34)CC1)C2=O` [Example 81], the “Metabolic stability” value is given as below 0.01 mL/min/mg protein.

Regarding `CC1CN(CCN2CCC(c3noc4ccccc34)CC2)C(=O)c2ccn(C)c21` (centres unmarked) [Example 82], the “Metabolic stability” value was found to be 0.072 mL/min/mg protein.

In the case of `[2H]C([2H])([2H])Oc1cc2c(cn1)C(=O)N(CCN1CCN(c3nsc4ccccc34)CC1)CC2([2H])[2H]` [Example 107, 2-{2-[4-(1,2-Benzoisothiazol-3-yl)piperazin-1-yl]ethyl}-6-[(^2H3)methyloxy](4,4-^2H2)-3,4-dihydro-2,7-naphthyridin-1(2H)-one], the “Metabolic stability” value turned out to be 0.210 mL/min/mg protein.

Regarding `O=C1c2nc[nH]c2CCN1CCN1CCC(c2noc3ccccc23)CC1` [Example 191, 5-{2-[4-(1,2-Benzoisoxazol-3-yl)piperidin-1-yl]ethyl}-6,7-dihydro[1,3]imidazolo[4,5-c]pyridin-4(5H)-one], the “Metabolic stability” value is listed as below 0.05 mL/min/mg protein.

For the molecule `Cc1nc2c(o1)C(=O)N(CCN1CCN(c3nsc4ccccc34)CC1)CC2` [Example 45], the “Metabolic stability” value was found to be 0.032 mL/min/mg protein.

Regarding `Cn1ncc2c1CCN(CCN1CCC(c3noc4ccccc34)CC1)C2=O` [Example 130], the “Metabolic stability” value is below 0.05 mL/min/mg protein.

Take `O=C1c2ncoc2CCN1CCN1CCC(c2noc3ccccc23)CC1` [Example 190, 5-{2-[4-(1,2-Benzoisoxazol-3-yl)piperidin-1-yl]ethyl}-6,7-dihydro[1,3]oxazolo[4,5-c]pyridin-4(5H)-one]: the “Metabolic stability” value is listed as below 0.05 mL/min/mg protein.

On to `CCn1ncc2c1CCN(CCN1CCN(c3nsc4ccccc34)CC1)C2=O` [Example 64], for which the “Metabolic stability” value stood at 0.064 mL/min/mg protein.

For `O=C1c2nc(F)ccc2CCN1CCN1CCC(c2noc3ccccc23)CC1` [Example 188, 7-{2-[4-(1,2-Benzoisoxazol-3-yl)piperidin-1-yl]ethyl}-2-fluoro-6,7-dihydro-1,7-naphthyridin-8(5H)-one], the “Metabolic stability” value is below 0.05 mL/min/mg protein.

For `Cn1ncc2c1CCN(CCN1CCN(c3noc4ccccc34)CC1)C2=O` [Example 131], the “Metabolic stability” value is below 0.05 mL/min/mg protein.

As to `Cc1nc2c(o1)CCCN(CCN1CCN(c3nsc4ccccc34)CC1)C2=O` [Example 52], the “Metabolic stability” value is on record as 0.043 mL/min/mg protein.

Consider `Cn1ncc2c1CCCN(CCN1CCN(c3nsc4ccccc34)CC1)C2=O` [Example 44], for which the “Metabolic stability” value came to 0.04 mL/min/mg protein.

`Cc1noc2c1C(=O)N(CCN1CCN(c3noc4ccccc34)CC1)CC2` [Example 32, 5-{2-[4-(1,2-Benzoisoxazol-3-yl)piperazin-1-yl]ethyl}-3-methyl-6,7-dihydro[1,2]oxazolo[4,5-c]pyridin-4(5H)-one]: the “Metabolic stability” value was below 0.01 mL/min/mg protein.

On to `O=C1c2ncccc2CCN1CCN1CCN(c2noc3ccccc23)CC1` [Example 1, 7-{2-[4-(1,2-Benzoisoxazol-3-yl)piperazin-1-yl]ethyl}-6,7-dihydro-1,7-naphthyridin-8(5H)-one], for which the “Metabolic stability” value was below 0.01 mL/min/mg protein.

For the molecule `Cc1cc2c(C3CCN(CCN4CCc5cccnc5C4=O)CC3)noc2cc1F` [Example 6], the “Metabolic stability” value was 0.061 mL/min/mg protein.

On to `Cc1n[nH]c2c1C(=O)N(CCN1CCC(c3noc4ccccc34)CC1)CC2` [Example 99, 5-{2-[4-(1,2-Benzoisoxazol-3-yl)piperidin-1-yl]ethyl}-3-methyl-1,5,6,7-tetrahydro-4H-pyrazolo[4,3-c]pyridin-4-one], for which the “Metabolic stability” value was below 0.01 mL/min/mg protein.

Consider `Cn1ccc2c1CCCN(CCN1CCC(c3noc4ccccc34)CC1)C2=O` [Example 103, 5-{2-[4-(1,2-Benzoisoxazol-3-yl)piperidin-1-yl]ethyl}-1-methyl-5,6,7,8-tetrahydropyrrolo[3,2-c]azepin-4(1H)-one], for which the “Metabolic stability” value was below 0.01 mL/min/mg protein.

As to `Cn1cc2c(n1)C(=O)N(CCN1CCC(c3noc4ccccc34)CC1)CCC2` [Example 48], the “Metabolic stability” value is given as below 0.01 mL/min/mg protein.

Regarding `O=c1c2cncnc2ccn1CCN1CCC(c2noc3ccccc23)CC1` [Example 129], the “Metabolic stability” value was determined as 0.084 mL/min/mg protein.

With `Cn1ccc2c1CCN(CCN1CCN(c3noc4ccccc34)CC1)C2=O` [Example 170], the “Metabolic stability” value is reported as below 0.05 mL/min/mg protein.

In the case of `O=C1c2cncnc2CCN1CCN1CCN(c2nsc3ccccc23)CC1` [Example 58], the “Metabolic stability” value was found to be 0.092 mL/min/mg protein.

`Cn1cc2c(n1)C(=O)N(CCN1CCN(c3nsc4ccccc34)CC1)CCC2` [Example 49]: the “Metabolic stability” value was found to be 0.063 mL/min/mg protein.

As to `Cc1nc(C)c2c(n1)CCN(CCN1CCC(c3noc4ccccc34)CC1)C2=O` [Example 139], the “Metabolic stability” value is listed as below 0.05 mL/min/mg protein.

As for `O=C1c2ncccc2CCN1CCN1CCN(c2noc3cc(F)ccc23)CC1` [Example 123], the “Metabolic stability” value is given as below 0.05 mL/min/mg protein.

With `Cc1ccc2c(n1)C(=O)N(CCN1CCN(c3noc4ccccc34)CC1)CC2` [Example 183], the “Metabolic stability” value is recorded as below 0.05 mL/min/mg protein.

For `O=c1c2ncccc2ccn1CCN1CCN(c2nsc3ccccc23)CC1` [Example 8], the “Metabolic stability” value turned out to be 0.064 mL/min/mg protein.

As for `Cc1nc2c(o1)CCN(CCN1CCN(c3nsc4ccccc34)CC1)C2=O` [Example 51], the “Metabolic stability” value is 0.074 mL/min/mg protein.

As to `O=c1c2cnccc2ccn1CCN1CCN(c2noc3ccccc23)CC1` [Example 116], the “Metabolic stability” value stood at 0.1 mL/min/mg protein.

Take `COc1cc2c(cn1)C(=O)N(CCN1CCN(c3nsc4ccccc34)CC1)CC2` [Example 2, 2-{2-[4-(1,2-Benzoisothiazol-3-yl)piperazin-1-yl]ethyl}-6-methoxy-3,4-dihydro-2,7-naphthyridin-1(2H)-one]: the “Metabolic stability” value was determined as 0.22 mL/min/mg protein.

`Cc1nn(C)c2c1C(=O)N(CCN1CCC(c3noc4ccccc34)CC1)CCC2` [Example 91]: the “Metabolic stability” value was below 0.05 mL/min/mg protein.

Turning to `CC(CN1CCC(c2noc3cc(F)ccc23)CC1)N1CCc2cccnc2C1=O` (centres unmarked) [Example 122], the “Metabolic stability” value is given as below 0.05 mL/min/mg protein.

For the molecule `O=C1c2cn[nH]c2CCCN1CCN1CCC(c2noc3ccccc23)CC1` [Example 97, 5-{2-[4-(1,2-Benzoisoxazol-3-yl)piperidin-1-yl]ethyl}-5,6,7,8-tetrahydropyrazolo[4,3-c]azepin-4(1H)-one], the “Metabolic stability” value is below 0.01 mL/min/mg protein.

These data come from US11466007B2, “Substituted lactams showing serotonin 5-HT receptor activity” (Sumitomo Pharma Co., Ltd., priority 2018, dated 2022).
